According to patent publication US20180161314A1, “Methods for Treating Hyperuricemia and Related Diseases” (Ardea Biosciences, Inc., priority 2010, published 2018):

Assays:
[1] = in clinical studies; cited from earlier work
xanthine oxidase = xanthine oxidase (Homo sapiens, UniProt P47989); details: cited from earlier work
[2] = test system: gout patients with hyperuricemia; test: Febuxostat alone and in combination with drug 1, open-label study in gout patients with hyperuricemia (Examples 23, 24); type: in vivo, human; details: for Mean absolute sUA reduction / Mean sUA % change / Mean sUA level: ± SE
Procedure: Study Objectives • To measure the effect of febuxostat alone and in combination with drug 1 on serum urate concentrations. • To evaluate the safety and tolerability of drug 1 in combination with febuxostat.
The study is open-label in gout patients with hyperuricemia, involving 2 panels of ˜10-12 patients per panel. The panels may be enrolled simultaneously.
Panel 1 receives a once-daily dose of febuxostat 40 mg with ascending doses of drug 1. Panel 2 receives a once-daily dose of febuxostat 80 mg with ascending doses of drug 1.
• Day −14 to Day 28: colchicine prophylaxis; or • Day −7 to Day 28: colchicine prophylaxis (for patients not washing out from ULT) • Days 1-7: febuxostat 40 mg qd • Days 8-14: febuxostat 40 mg qd+drug 1 400 mg qd • Days 15-21: febuxostat 40 mg qd+drug 1 600 mg qd
• Day −14 to Day 28: colchicine prophylaxis; or • Day −7 to Day 28: colchicine prophylaxis (for patients not washing out from ULT) • Days 1-7: febuxostat 80 mg qd • Days 8-14: febuxostat 80 mg qd+drug 1 400 mg qd • Days 15-21: febuxostat 80 mg qd+drug 1 600 mg qd
Gout patients on a urate lowering therapy (ULT), have previously taken a ULT or who have never taken a ULT are eligible to participate. Screening procedures to determine patient eligibility are performed within approximately 21 days of the first dose of study drug (Day 1). Subjects currently on ULT wash-out for approximately 14 days before Day 1, and begin colchicine (Colcrys® 0.6 mg qd, URL Pharma) as prophylaxis for gout flares. During the washout period, subjects who have discontinued ULT may have their sUA re-tested (at least 7 days after washing out) to confirm eligibility. Subjects not on ULT begin colchicine administration at least 7 days prior to Day 1. […] Patients intolerant of colchicine during the screening period are considered screen failures and not enrolled. Prophylactic administration of colchicine continues for 7 days after the last dose of study medication.
Eligible patients report to the study center early morning on Days −1, 7, 14, and 21 (or the afternoon/evening the day before). Serial blood samples are collected on Days −1, 7, 14, and 21. 24-hour urine collection is obtained on Days −1, 7, 14, and 21. Spot urine assessments also obtained on Day −1.
Study medication is administered to each patient and taken orally every morning with approximately 240 mL of water, at approximately the same time of the morning every day, and approximately 30 minutes after finishing a full breakfast (approximately 650 Kcal and 35% fat); the breakfast is standardized on Days −1 to 21.
Inclusion Criteria • Patient is male or post-menopausal or surgically sterile female. • Patient is 18-80 years of age, inclusive. • Patient meets one or more criteria for the diagnosis of gout as per the American Rheumatism Association (ARA) Criteria for the Classification of Acute Arthritis of Primary Gout (Appendix C). • Patient sUA≥8 mg/dL at screening. • Patient willing and able to give informed consent and adhere to visit/protocol schedules • No clinically relevant abnormalities in blood pressure (BP), heart rate (HR), body temperature and respiratory rate as per Investigator's judgment.
Subject urate serum levels are recorded, and any safety concerns assessed (by adverse events, clinical laboratory test results, vital signs, 12-lead ECGs, and physical examinations). […] Urate serum concentrations are evaluated for treatment- and/or time-dependent changes relative to baseline (Day −1), and may be expressed both in standard units (mg/dL) and as changes from baseline (e.g., percent change, absolute change, maximal change, and time or day of maximal change).
Drug 1 was tested according to the clinical trial protocol described in Example 23.
Serum urate levels were measured and absolute and % reduction levels from baseline calculated. Mean levels, mean absolute reductions (mg/dL, all data SE) and % change results are presented in the table below and in FIGS. 10 and 11. […]

[3] = FBX 40 mg alone, FBX 40 mg + Drug 1 400 mg
[4] = FBX 40 mg qd alone days 1-7, FBX 40 mg + Drug 1 400 mg qd days 8-14
[5] = FBX 80 mg alone, FBX 80 mg + Drug 1 400 mg
[6] = FBX 80 mg qd alone days 1-7, FBX 80 mg + Drug 1 400 mg qd days 8-14

Chain of xanthine oxidase (P47989 whole entry, species assumed): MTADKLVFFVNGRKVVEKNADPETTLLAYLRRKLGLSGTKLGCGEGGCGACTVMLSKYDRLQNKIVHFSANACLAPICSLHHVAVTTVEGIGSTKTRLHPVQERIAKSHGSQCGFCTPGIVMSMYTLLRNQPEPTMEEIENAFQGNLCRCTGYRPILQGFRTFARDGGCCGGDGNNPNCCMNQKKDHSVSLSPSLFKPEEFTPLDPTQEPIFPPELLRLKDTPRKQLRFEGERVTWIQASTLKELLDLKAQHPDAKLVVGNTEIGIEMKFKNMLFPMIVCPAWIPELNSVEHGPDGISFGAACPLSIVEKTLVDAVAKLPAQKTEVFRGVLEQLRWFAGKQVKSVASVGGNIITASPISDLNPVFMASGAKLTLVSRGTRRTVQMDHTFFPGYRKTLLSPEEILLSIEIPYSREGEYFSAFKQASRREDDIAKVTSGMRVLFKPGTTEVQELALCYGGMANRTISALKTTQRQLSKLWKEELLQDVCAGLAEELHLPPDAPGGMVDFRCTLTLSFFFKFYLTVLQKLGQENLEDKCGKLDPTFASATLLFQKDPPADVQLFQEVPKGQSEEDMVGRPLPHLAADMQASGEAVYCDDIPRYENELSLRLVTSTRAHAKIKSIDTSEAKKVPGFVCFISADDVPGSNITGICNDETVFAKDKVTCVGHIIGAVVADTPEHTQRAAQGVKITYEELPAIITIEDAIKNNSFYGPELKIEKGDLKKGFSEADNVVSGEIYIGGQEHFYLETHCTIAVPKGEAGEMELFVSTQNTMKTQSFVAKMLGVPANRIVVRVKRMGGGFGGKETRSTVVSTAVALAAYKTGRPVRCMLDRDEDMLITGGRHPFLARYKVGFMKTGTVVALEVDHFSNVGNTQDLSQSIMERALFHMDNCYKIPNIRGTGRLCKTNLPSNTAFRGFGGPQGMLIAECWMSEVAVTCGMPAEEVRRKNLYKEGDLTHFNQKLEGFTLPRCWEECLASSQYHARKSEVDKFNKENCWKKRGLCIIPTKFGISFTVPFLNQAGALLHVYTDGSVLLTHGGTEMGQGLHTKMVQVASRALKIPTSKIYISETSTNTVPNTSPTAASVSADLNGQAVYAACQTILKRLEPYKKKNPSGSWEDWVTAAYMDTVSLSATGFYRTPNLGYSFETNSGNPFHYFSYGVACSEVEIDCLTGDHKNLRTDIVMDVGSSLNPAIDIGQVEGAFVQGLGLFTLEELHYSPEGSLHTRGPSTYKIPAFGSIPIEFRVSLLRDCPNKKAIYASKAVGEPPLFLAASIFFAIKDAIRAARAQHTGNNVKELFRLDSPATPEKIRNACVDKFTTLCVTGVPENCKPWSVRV

Row | Compound | Route of excretion [1] | Inhibition of xanthine oxidase (xanthine oxidase) | % Response rate for sUA <3 mg/dL [2, 3] [%] | % Response rate for sUA <4 mg/dL [2, 3] [%] | % Response rate for sUA <5 mg/dL [2, 3] [%] | % Response rate for sUA <6 mg/dL [2, 3] [%] | Mean absolute sUA reduction [2, 4] [mg/dL] | Mean sUA % change [2, 4] [%] | Mean sUA level [2, 4] [mg/dL] | % Response rate for sUA <3 mg/dL [2, 5] [%] | % Response rate for sUA <4 mg/dL [2, 5] [%] | % Response rate for sUA <5 mg/dL [2, 5] [%] | % Response rate for sUA <6 mg/dL [2, 5] [%] | Mean absolute sUA reduction [2, 6] [mg/dL] | Mean sUA % change [2, 6] [%] | Mean sUA level [2, 6] [mg/dL]
1 | O=C(O)CSc1nnc(Br)n1-c1ccc(C2CC2)c2ccccc12 [Drug 1, Sodium 2-(5-bromo-4-(4-cyclopropylnaphthalen-1-yl)-4H-1,2,4-triazol-3-ylthio)acetate] | preferentially excreted through the kidney, reaching high concentrations in urine | does not significantly inhibit | – | – | – | – | – | – | – | – | – | – | – | – | – | –
2 | Cc1nc(-c2ccc(OCC(C)C)c(C#N)c2)sc1C(=O)O [Febuxostat, 2-(3-Cyano-4-isobutoxyphenyl)-4-methyl-1,3-thiazole-5-carboxylic acid, reference compound] | – | – | 0 | 0 | 17 | 67 | -3.2 ± 0.21 | −35.7 ± 2.0 | 5.6 ± 0.24 | 0 | 0 | 22 | 56 | -4.6 ± 0.51 | −44.2 ± 3.5 | 5.7 ± 0.29
